Results on 13 compounds are retold here after patent US20020019527A1 (priority 2000, published 2002).

Structures can show the parent of a compound that is named as a salt.

The target of the assay is T1, Farnesyltransferase (FTase) (Bos taurus, UniProt P29702+P49355).
T1 construct: precipitation from a beef brain homogenate; from tissue; host or cells: bovine brain
T1 sequence (P49355 whole entry, one chain of several): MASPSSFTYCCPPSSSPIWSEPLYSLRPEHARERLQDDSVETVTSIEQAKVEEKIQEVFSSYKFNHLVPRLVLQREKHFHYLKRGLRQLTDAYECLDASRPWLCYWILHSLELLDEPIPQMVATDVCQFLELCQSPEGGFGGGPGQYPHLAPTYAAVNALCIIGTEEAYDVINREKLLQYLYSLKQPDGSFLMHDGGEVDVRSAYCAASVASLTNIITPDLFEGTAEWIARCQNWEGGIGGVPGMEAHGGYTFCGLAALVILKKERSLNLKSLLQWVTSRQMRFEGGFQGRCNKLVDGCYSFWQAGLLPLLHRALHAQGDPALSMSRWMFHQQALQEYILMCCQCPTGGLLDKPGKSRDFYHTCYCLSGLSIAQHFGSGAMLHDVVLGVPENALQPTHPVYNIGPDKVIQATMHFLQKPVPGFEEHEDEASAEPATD
In words: Farnesyltransferase inhibition (scintillation proximity assay, [3H]-FPP / biotin-K-ras peptide). The format is biochemical, bovine. The note with it: compound at 10^−6 M; bovine FTase, 37° C., 30 minutes. The procedure:
Farnesyltransferase (FTase) or geranylgeranyltransferase I (GGTase I) fractions were isolated from bovine brains and purified by a series of methods which separate FTase from GGTase I and GGTase I from GGTase II. The methods involved a partial purification of all three enzymes by precipitation from a beef brain homogenate with 30% to 50% saturated […] followed by chromatography on DEAE Sepharose. […] The catalytic purity of each enzyme was assayed separately with substrate acceptor proteins specific for that enzyme. After quickly freezing in liquid nitrogen, the various prenyl transferases were stored at −80° C.
The quenched reactions stood for 1 hour before analysis in a Packard TopCount scintillation counter. Purified compounds were dissolved in 100% ethanol and diluted 10-fold into the assay.
What is called inhibition is how much of the control response was suppressed. Read a high inhibition as a response far below the control. With `Cn1cncc1C(NC1CCN(C(=O)OCc2ccccc2)CC1)c1ccc(C#N)c(-c2cccc3ccccc23)c1` (stereo not shown) [Example 54, benzyl 4-(((4-cyano-3-(1-naphthyl)phenyl)(1-methyl-1H-imidazol-5-yl)methyl)amino)-1-piperidinecarboxylate dihydrochloride], the inhibition at 1 µM came out at 100%.
For `Cn1cncc1C(NC1CCN(Cc2ccccc2)CC1)c1ccc(C#N)c(-c2cccc3ccccc23)c1` (stereo not shown) [Example 55, 4-(((1-benzyl-4-piperidinyl)amino)(1-methyl-1H-imidazol-5-yl)methyl)-2-(1-naphthyl)benzonitrile trihydrochloride], the inhibition at 1 µM came out at 100%.
Still for that read-out and setting: with `Cn1cncc1C(NC1CCN(C(=O)OC(C)(C)C)CC1)c1ccc(C#N)c(-c2cccc3ccccc23)c1` (stereo not shown) [Example 56, tert-butyl 4-(((4-cyano-3-(1-naphthyl)phenyl)(1-methyl-1H-imidazol-5-yl)methyl)amino)-1-piperidinecarboxylate] the figure was 100%.
Take `Cn1cncc1C(NC1CCN(C(=O)c2ccccc2)CC1)c1ccc(C#N)c(-c2cccc3ccccc23)c1` (stereo not shown) [Example 57, 4-(((1-benzoyl4-piperidinyl)amino)(1-methyl-1H-imidazol-5-yl)methyl)-2-(1-naphthyl)benzonitrile dihydrochloride]: testing at 1 µM gave an inhibition of 100%.
The compound `Cn1cncc1C(NCc1ccc(C(N)=O)cc1)c1ccc(C#N)c(-c2cccc3ccccc23)c1` (stereo not shown) [Example 58, 4-((((4-cyano-3-(1-naphthyl)phenyl)(1-methyl-1H-imidazol-5-yl)methyl)amino)methyl)benzamide dihydrochloride] had an inhibition at 1 µM of 100%.
What is called % Inhibition is how much of the control response was suppressed. A low value points to a weak effect. As to `Cl.Cn1cncc1C(OCc1ccc([N+](=O)[O-])cc1)c1ccc(C#N)c(-c2cccc3ccccc23)c1` (stereo not shown) [Example 59, 4-((1-methyl-1H-imidazol-5-yl)((4-nitrobenzyl)oxy)methyl)-2-(1,1-naphthyl)benzonitrile hydrochloride], the “% Inhibition at 10^−6M” value is on record as 100%.
`Cn1cncc1C(OCc1ccc(C#N)cc1)c1ccc(C#N)c(I)c1` (stereo not shown) [Example 60, 4-(((4-cyanobenzyl)oxy)(1-methyl-1H-imidazol-5-yl)methyl)-2-iodobenzonitrile hydrochloride] gave an inhibition at 1 µM of 96%.
Turning to `Cn1cncc1C(OCc1ccc(C#N)c(Cl)c1)c1ccc(C#N)c(-c2cccc3ccccc23)c1` (stereo not shown) [Example 61, 4-(((3-chloro-4-cyanobenzyl)oxy)(1-methyl-1H-imidazol-5-yl)methyl)-2-(1-naphthyl)benzonitrile hydrochloride], the inhibition at 1 µM turned out to be 100%.
Turning to `Cn1cncc1C(SCc1ccc(C#N)cc1)c1ccc(C#N)c(-c2cccc3ccccc23)c1` (stereo not shown) [Example 62, 4-(((4-cyanobenzyl)sulfanyl)(1-methyl-1H-imidazol-5-yl)methyl)-2-(1-naphthyl)benzonitrile hydrochloride], the inhibition at 1 µM turned out to be 100%.
The same measure, in the same setting: then `Cn1cncc1C(OCc1ccc(C#N)c(I)c1)c1ccc(C#N)c(-c2cccc3ccccc23)c1` (stereo not shown) [Example 63, 4-(((4-cyano-3-iodobenzyl)oxy)(1-methyl-1H-imidazol-5-yl)methyl)-2-(1-naphthyl)benzonitrile hydrochloride], with 100%; and `COC(=O)c1ccc(COC(c2ccc(C#N)c(-c3cccc4ccccc34)c2)c2cncn2C)cc1` (stereo not shown) [Example 64, methyl 4-(((4-cyano-3-(1-naphthyl)phenyl)(1-methyl-1H-imidazol-5-yl)methoxy)methyl)benzoate hydrochloride], with 100%.
On the same count and under the same terms, with `Cn1cncc1C(OCc1ccc(C(F)(F)F)cc1)c1ccc(C#N)c(-c2cccc3ccccc23)c1` (stereo not shown) [Example 65, 4-((1-methyl-1H-imidazol-5-yl)((4-(trifluoromethyl)benzyl)oxy)methyl)-2-(1-naphthyl)benzonitrile hydrochloride] the figure was 100%; with `Cn1cncc1C(OCc1ccc(Cl)cc1)c1ccc(C#N)c(-c2cccc3ccccc23)c1` (stereo not shown) [Example 66, 4-(((4-chlorobenzyl)oxy)(1-methyl-1H-imidazol-5-yl)methyl)-2-(1-naphthyl)benzonitrile hydrochloride], 100%.
